# Experiments:
# [1] = test system: Yersinia Enterocolitica; assay: Growth of inoculated Yersinia Enterocolitica in whole blood under different atmospheres; type: cell-based; conditions: room temperature, about 20 bacteria per ml inoculated, compared with air (FIG. 1)
# Description: Freshly drawn whole blood was obtained from a human donor under sterile conditions, and stored in gas impermeable bags having a volume of at least 1.5 times that of the blood volume. The gas environment (or atmosphere) in the bag was then replaced by an atmosphere containing sterile CO by applying a low level vacuum with a water pump of 20 mm Hg. CO was immediately flushed through a 0.25 micron sterile filter. The bag was sealed and agitated for 15 minutes to allow equilibration. This procedure was repeated three times thereby exchanging the atmosphere in the bag and blood with CO. Saturation with carbon monoxide can be identified in hemoglobin in samples of the treated blood according to typical changes of the light absorption spectrum of the hemoglobin in the visible region by a shift from 577 nm (typical of oxy-hemoglobin) to 569 nm (typical of carbomonoxy-hemoglobin).
# (§1) Control blood samples were packed under air in the same containers without any additional treatment allowing air transfer. In some experiments control of inert gas like nitrogen were used to exchange the air in the same manner as CO.
# Whole blood or its factions were inoculated with pathogenic bacteria. Growth of the bacteria at room temperature was followed under different atmospheres (gas environments ). […]
# [2] = test system: Bacilus cereus; assay: Growth of inoculated Bacilus cereus in platelets stored as PRP; type: cell-based; conditions: 20-24° C., inoculated at 18 CFU/ml, compared with air (FIG. 2)
# Description: (§2) PC fractions were identically prepared from CO pretreated or untreated blood by consecutive centrifugation in a sterile environment using blood bank conditions. Bicarbonate (4% of PC volume) is than added from a stock solution of 750 mM while agitation to yield a final bicarbonate concentration of 30 mM. […] Alternatively, rather than applying a vacuum, the containers were flushed for 10 min. with sterile CO while agitating the containers, which were then sealed. The containers were allowed to stay at room temperature of 20-24° C.PRP platelets were treated similarly.
# (§3) Control blood samples were packed under air in the same containers without any additional treatment allowing air transfer. In some experiments control of inert gas like nitrogen were used to exchange the air in the same manner as CO. […]
# (§4) For FIGS. 2-6, platelets were stored as PRP with agitation at room temperature (20-24° C.) in a blood bank rocking plane as for regular blood bank under air with gas exchange option (AIR); or sealed under nitrogen atmosphere (N2) or carbon monoxide atmosphere (CO). […] The amount of inoculated bacteria was adjusted to a range of 10-100 CFU/ml before inoculation, in which the exact final number of bacteria was been measured by plating the stock on suitable agar plates allowing growth and counting (the final initial counts are given in each case).
# [3] = test system: E. coli (strain O 157); assay: Growth of inoculated E. coli in platelets stored as PRP; type: cell-based; conditions: 20-24° C., inoculated at 25 CFU/ml, compared with air (FIG. 3)
# Description: as §2, §3, §4
# [4] = test system: Pseudomonas aeraginosa; assay: Growth of inoculated Pseudomonas aeraginosa in platelets stored as PRP; type: cell-based; conditions: 20-24° C., inoculated at 16 CFU/ml, compared with air (FIG. 4)
# Description: as §2, §3, §4
# [5] = test system: Bulkholderia cepasea; assay: Growth of inoculated Bulkholderia cepasea in platelets stored as PRP; type: cell-based; conditions: 20-24° C., inoculated at 12 CFU/ml, compared with air (FIG. 5)
# Description: as §2, §3, §4
# [6] = test system: Staphilococcus aereus; assay: Growth of inoculated Staphilococcus aereus in platelets stored as PRP; type: cell-based; conditions: 20-24° C., inoculated at 18 CFU/ml, compared with air (FIG. 6)
# Description: as §2, §3, §4
# [7] = test system: Salmonella thyphimurium; assay: Growth of Salmonella thyphimurium in PRP or PC fractions; type: cell-based; conditions: compared with air (FIG. 7)
# Description: (§5) PC fractions were identically prepared from CO pretreated or untreated blood by consecutive centrifugation in a sterile environment using blood bank conditions. Bicarbonate (4% of PC volume) is than added from a stock solution of 750 mM while agitation to yield a final bicarbonate concentration of 30 mM. Next, the PC is treated with CO in a similar manner to whole blood. Alternatively, rather than applying a vacuum, the containers were flushed for 10 min. with sterile CO while agitating the containers, which were then sealed. The containers were allowed to stay at room temperature of 20-24° C.PRP platelets were treated similarly.
# as §1
# Whole blood or its factions were inoculated with pathogenic bacteria. Growth of the bacteria at room temperature was followed under different atmospheres (gas environments ). The blood fractions were platelets in plasma (PRP); concentrated platelets (PC) as currently stored in blood banks after removal of about three quarters of the plasma and the cell-free blood plasma. […]
# [8] = test system: Salmonella thyphimurium; assay: Growth of Salmonella thyphimurium in cells-free plasma; type: cell-based; conditions: plasma alone as source of nutrition (FIG. 8)
# Excerpt: Whole blood or its factions were inoculated with pathogenic bacteria. Growth of the bacteria at room temperature was followed under different atmospheres (gas environments ). The blood fractions were platelets in plasma (PRP); concentrated platelets (PC) as currently stored in blood banks after removal of about three quarters of the plasma and the cell-free blood plasma.
# FIG. 8 compares the growth of Salmonella thyphimurium in cells-free plasma under AIR, N2 and CO.
# [9] = test system: platelets; assay: Platelet viability: leakage of LDH from stored platelets; type: cell-based, human
# Description: as §5
# The viability of the platelets under storage was tested in the form of PC because platelets are currently stored in this form, in order to be able to store and use the extra plasma in PRP separately. However, the PC environment lacks both red cells and plasma, such that platelets in this environment are more sensitive than in the PRP form to loss of viability. Without wishing to be limited to a single hypothesis, platelets in the form of PC may experience changes in pH, and therefore may lose the necessary pH neutrality of the environment. The viability of platelets stored as PC was investigated according to two parameters: drop of pH of the environment, and loss of membrane integrity of the cells themselves, leading to leakage of cellular proteins.
# With regard to leakage of LDH, cell viability can also be evaluated according to membrane integrity. LDH (lactic dehydrogenase) is a stable enzyme which is normally active inside cells; when these cells have loss of membrane integrity, LDH is leaked outside the cells, such that higher levels of LDH activity are correlated with reduced platelet viability. The presence of LDH activity in platelet-free solution samples was measured in order to assess the viability of the platelet-containing fractions from which the samples were taken. […]
# [10] = test system: platelets; assay: Ability of stored platelets to aggregate upon activation by collagen (Plateletworks kit); type: cell-based, human
# Description: An assessment of the potential of platelets to form aggregates upon activation by an agonist, preferably collagen, a typical physiological agonist, was performed, to determine the potential effect of carbon monoxide on this physiological function of platelets. The assay was performed as follows.
# Fresh blood bank platelets, prepared as platelet concentrates (PC), were used. Each PC unit was divided. One part was stored without carbon monoxide treatment, which is the current method of preserving PC in blood banks. The other portion was sealed under carbon monoxide as previously described. Samples were preserved under sterile conditions at 20-23° C., while shaking gently. The ability of platelets to aggregate upon activation by collagen as an agonist was tested daily using a kit by Helena Laboratories (USA), called the Plateletworks kit. To allow platelet count and reduce anticoagulant activity, the PC was diluted 1:10 with the physiological buffer PBS pH 7.3. The whole individual platelets present were counted prior and after addition of the agonist, for this example collagen.
# Therefore, the stored PC samples (control and stored under carbon monoxide) were tested for their ability to aggregate following two hours shaking under air after being removed from storage.
# [11] = test system: human body; conditions: cited from earlier work
# [12] = test system: platelets; conditions: via binding to Guanylate Cyclase; Brune and Ullrich 1987; cited from earlier work
# [13] = test system: bacteria; conditions: upon photoactivation; Gambro BCT abstracts 2001; cited from earlier work
# [14] = test system: platelets; conditions: autologous transfusions performed in primates; cited from earlier work
SMILES,growth of inoculated Yersinia Enterocolitica in whole blood [1],growth of Bacilus cereus in PRP [2],growth of E. coli (strain O 157) in PRP [3],growth of Pseudomonas aeraginosa in PRP [4],growth of Bulkholderia cepasea in PRP [5],growth of Staphilococcus aereus in PRP [6],"growth of Salmonella thyphimurium in PC ([7]; PC, count at time zero 32 CFU/ml)","growth of Salmonella thyphimurium in PRP ([7]; PRP, count at time zero 16 CFU/ml)",growth of Salmonella thyphimurium in cells-free plasma [8],"LDH activity in the supernatant, a measure of leakage ([9]; PC, air vs CO vs CO with sodium bicarbonate (FIG. 10))","viability of platelets in PC (LDH leakage) ([9]; PC, no additional bicarbonate, compared with air (FIG. 10))","leakage of LDH (LDH activity in supernatant), platelets stored as PRP ([9]; PRP, compared with air, data not shown)","ability to aggregate in response to collagen ([10]; PC stored under carbon monoxide, carbon monoxide replaced by air)","formation of aggregates upon exposure to collagen ([10]; PC stored under carbon monoxide, tested immediately after being exposed to air)","fraction of platelets able to form aggregates ([10]; PC, day 11, two hours shaking under air after storage, compared with same PC unit stored under air (FIGS. 11A-11C))","safety threshold or TLV, equivalent inhalation ([11]; equivalent of 8 hours per day at 20 ppm)",safety threshold or TLV for the human body ([11]; inhalation of 8 hours per day of air containing the gas) [ppm],aggregation of platelets [12],effectiveness for bacterial inactivation [13],platelet survival rates [14]
[C-]#[O+] [carbon monoxide],completely inhibited,significantly inhibited,significantly inhibited,significantly inhibited,eliminated,significantly inhibited,inhibited,significantly inhibited,inhibition of pathogen growth was maintained,"similar, high levels",lost much faster than stored in air,equal or even somewhat lower than under air,regained their ability to aggregate,did not form aggregates,larger fraction,10^4 ppm/minute,20,can inhibit aggregation,,
"N#N [nitrogen, reference compound]",completely inhibited,little or no effect,little or no effect,little or no effect,little or no effect,little or no effect,,,,,,,,,,,,,,
Cc1cc2nc3c(=O)[nH]c(=O)nc-3n(C[C@H](O)[C@H](O)[C@H](O)CO)c2cc1C [riboflavin],,,,,,,,,,,,,,,,,,,variable effectiveness,may even decrease platelet survival rates
